Our source for the IC50 values is patent US20230031406A1, “COMPOUNDS AND COMPOSITIONS FOR TREATING CONDITIONS ASSOCIATED WITH NLRP ACTIVITY” (Novartis AG, priority 2018, published 2023).

This test has as its system PMA-differentiated THP-1 cells. Kind of test: IL-1β production in PMA-differentiated THP-1 cells stimulated with gramicidin (hTHP-1 assay containing 2% fetal bovine serum; Procedures 1 and 2). Format: cell-based, human. The settings on record: 2% fetal bovine serum. The essentials: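 Human monocytic THP-1 cells, matured overnight with PMA at 20 ng/ml, are seeded in low-serum (2% FBS) RPMI. Test compounds, at final concentrations from 100 down to 0.0017 μM, precede gramicidin (5 μM, 2 h) by one hour. Released IL-1β is then determined by HTRF.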

[1] abbreviates: Table B2, class symbols, read-out: hTHP-1 IC50.
The mark [2] stands for this setting: Homo sapiens, THP-1, Table B3, hTHP-1 assay, class symbols, read-out: IC50.
Setting [3] is: Homo sapiens, THP-1, Table B2, class symbols, read-out: hTHP-1 IC50.
Setting [4] is: Table B3, hTHP-1 assay, class symbols, read-out: IC50.
[5] abbreviates: Table B1, class symbols, read-out: Average IC50 of compounds in hTHP-1 assay: hTHP-1 IC50.
Where [6] appears, read: Homo sapiens, THP-1, Table B1, numeric bounds, read-out: Average IC50 of compounds in hTHP-1 assay: hTHP-1 IC50.

Read-outs that look alike come from different tables or passages of the source.

Turning to `CC1(C)CCc2c1nc1c(c2NC(=O)N=S(N)(=O)c2sc(C(C)(O)CO)cc2F)CCC1` (single isomer, unassigned) [Compound 699c, (R, S) and (S, S) or (S, R) and (R, R)-5-(1,2-Dihydroxypropan-2-yl)-N′-((3,3-dimethyl-1,2,3,5,6,7-hexahydrodicyclopenta [b,e]pyridin-8-yl)carbamoyl)-3-fluorotliophene-2-sulfonimidamide], under setting [1], the half-inhibitory concentration (IC50) – broadly, the concentration that inhibits the measured activity by half – lay in the range of 5 to 30 µM.

For `Cc1c(C2(F)CC2)nc2c(c1NC(=O)N=S(N)(=O)c1cc(C(C)(C)O)cs1)CCC2` (stereo not drawn) [Example 611, N′-((2-(1-fluorocyclopropyl)-3-methyl-6,7-dihydro-5H-cyclopenta[b]pyridin-4-yl)carbamoyl)-4-(2-hydroxypropan-2-yl)thiophene-2-sulfonimidamide], the IC50 under setting [2] lay in the range of 1 to 5 µM. As to `C[C@](O)(CO)c1cc(F)c([S@@](N)(=O)=NC(=O)Nc2c3c(nc4c2CCC42CC2)CCC3)s1` [Example 677, (S)-5-((S)-1,2-dihydroxypropan-2-yl)-3-fluoro-N′-((1′,5′,6′,7′-tetrahydro-2′H-spiro[cyclopropane-1,3′-dicyclopenta[b,e]pyridin]-8′-yl)carbamoyl)thiophene-2-sulfonimidamide], the IC50 under setting [2] fell in the range of 5 to 30 µM. Turning to `NS(=O)(=NC(=O)Nc1c2c(nc3c1CCC3)CCC2)c1ccn(CC(F)(F)F)n1` (single isomer, unassigned) [Compound 685a, (S) or (R)-N′-((1,2,3,5,6,7-hexahydrodicyclopenta [b,e]pyridin-8-yl)carbamoyl)-1-(2,2,2-trifluoroethyl)-1H-pyrazole-3-sulfonimidamide], the IC50 (Homo sapiens, THP-1, Table B2, numeric bounds, read-out: hTHP-1 IC50) was > 30 µM. For `C[C@@H]1CCc2c1nc1c(c2NC(=O)N=S(N)(=O)c2ccn(C)n2)CCC1` (stereo partly drawn) [Compound 639, 1-Methyl-N′-(((R)-3-methyl-1,2,3,5,6,7-hexahydrodicyclopenta[b,e]pyridin-8-yl)carbamoyl)-1H-pyrazole-3-sulfonimidamide], the IC50 under setting [3] fell in the range of 1 to 5 µM. Consider `NS(=O)(=NC(=O)Nc1c2c(nc3c1CCC31CC1)CCC2)c1cnn(C(F)F)c1` (stereo not drawn) [Compound 638, 1-(Difluoromethyl)-N′-((1′,5′,6′,7′-tetrahydro-2′H-spiro[cyclopropane-1,3′-dicyclopenta[b,e]pyridin]-8′-yl)carbamoyl)-1H-pyrazole-4-sulfonimidamide], for which, under setting [3], the 50% inhibitory concentration (IC50) was in the range of 5 to 30 µM. Turning to `CCc1ccsc1S(N)(=O)=NC(=O)Nc1c2c(nc3c1CC[C@H]3C)CCC2` (stereo partly drawn) [Example 631, 3-Ethyl-N′-(((R)-3-methyl-1,2,3,5,6,7-hexahydrodicyclopenta[b,e]pyridin-8-yl)carbamoyl)thiophene-2-sulfonimidamide], under setting [2], the IC50 is 1 to 5 µM.

With `NS(=O)(=NC(=O)Nc1c2c(nc(C3CC3)c1C1CC1)CCC2)c1ccn(C(F)F)n1` (single isomer, unassigned) [Example 696, (S) or (R)-N′-((2,3-dicyclopropyl-6,7-dihydro-5H-cyclopenta [b]pyridin-4-yl)carbamoyl)-1-(difluoromethyl)-1H-pyrazole-3-sulfonimidamide], the IC50 under setting [4] was in the range of 5 to 30 µM. Consider `CC(C)(O)c1ncc(S(N)(=O)=NC(=O)Nc2cc(-c3ccccc3)nc3c2CCC3)s1` (single isomer, unassigned) [Compound 142b, (S) or (R)-2-(2-hydroxy-propan-2-yl)-N′-((2-phenyl-6,7-dihydro-5H-cyclopenta[b]pyridin-4-yl)carbamoyl)thiazole-5-sulfonimidamide], for which the IC50 (Table B1, numeric bounds, read-out: Average IC50 of compounds in hTHP-1 assay: hTHP-1 IC50) is > 30 µM. As for `NS(=O)(=NC(=O)Nc1c2c(nc3c1CCC31CC1)CCC2)c1nn(C(F)F)cc1F` (single isomer, unassigned) [Example 682, (S) or (R)-1-(difluoromethyl)-4-fluoro-N′-((1′,5′,6′,7′-tetrahydro-2′H-spiro[cyclopropane-1,3′-dicyclopenta[b,e]pyridin]-8′-yl)carbamoyl)-1H-pyrazole-3-sulfonimidamide], the IC50 under setting [4] fell in the range of 1 to 5 µM. `CC1(C)CCc2c1nc1c(c2NC(=O)N=S(N)(=O)c2cnc(C(C)(O)CO)s2)CCC1` (single isomer, unassigned) [Compound 201f, (R, S) and (S, S) or (S, R) and (R, R)-2-(1.2-Dihydroxvpropan-2-yl)-N′-((3,3-dimethyl-1,2,3.5.6.7-hexahydrodicyclopenta [b,e]pvridin-8-yl)carbamoyl)thiazole-5-sulfonimidamide]: under setting [1], the IC50 fell in the range of 5 to 30 µM. On the same count and under the same terms, to `CCc1c(C2CC2)nc2c(c1NC(=O)N=S(N)(=O)c1cc(C(C)(C)O)cs1)CCC2` (single isomer, unassigned) [Compound 181a, (S) or (R)-N′-((2-cyclopropyl-3-ethyl-6,7-dihydro-5H-cyclopenta[b]pyridin-4-yl)carbamoyl)-4-(2-hydroxypropan-2-yl)thiophene-2-sulfonimidamide] belongs 1 to 5 µM. `CC(C)(O)c1ncc(S(N)(=O)=NC(=O)Nc2c3c(nc4c2CCC4F)CCC3)s1` (single isomer, unassigned) [Compound 183a, (R,R) or (R,S)-N′-((3-fluoro-1,2,3,5,6,7-hexahydrodicyclo-penta[b,e]pyridin-8-yl)carbamoyl)-2-(2-hydroxypropan-2-yl)thiazole-5-sulfonimidamide]: the IC50 under setting [5] was in the range of 1 to 5 µM.

As to `Cc1c(C2CC2)nc2c(c1NC(=O)N=S(N)(=O)c1cc(C(C)(C)O)cs1)CCC2C` (stereo not drawn) [Compound 656, N′-((2-cyclopropyl-3,7-dimethyl-6,7-dihydro-5H-cyclopenta[b]pyridin-4-yl)carbamoyl)-4-(2-hydroxypropan-2-yl)thiophene-2-sulfonimidamide], the IC50 under setting [1] fell in the range of 1 to 5 µM. Consider `CC(C)(O)c1ncc(S(N)(=O)=NC(=O)Nc2cc(-c3ccccc3)nc3c2CCC3)s1` (stereo not drawn) [Compound 142, 2-(2-hydroxypropan-2-yl)-N′-((2-phenyl-6,7-dihydro-5H-cyclopenta[b]pyridin-4-yl)carbamoyl)thiazole-5-sulfonimidamide], for which, under setting [6], the IC50 was > 30 µM. Regarding `CC1CCc2c1nc1c(c2NC(=O)N=S(N)(=O)c2ccn(C(F)F)n2)CCC1` (single isomer, unassigned) [Compound 184c, (R,S) or (R,R)-1-(difluoro-methyl)-N′-((3-methyl-1,2,3,5,6,7-hexahydro-dicyclopenta[b,e]pyridin-8-yl)carbamoyl)-1H-pyrazole-3-sulfonimidamide], the IC50 under setting [5] is 5 to 30 µM. On to `CC1(C)CCc2c1nc1c(c2NC(=O)N=S(N)(=O)c2cnc(C(C)(O)CO)s2)CCC1` (single isomer, unassigned) [Compound 201c, (S, S) or (R, S) or (S, R) or (R. R)-2-(1,2-Dihydroxypropan-2-yl)-N′-((3,3-dimethyl-1,2,3,5,6,7-hexahydrodicyclopenta [b,e]pvridin-8-yl)carbamoyl) thiazole-5-sulfonimidamide], for which the IC50 under setting [1] was 5 to 30 µM.

On to `CCc1c(-c2ccccc2)nc2c(c1NC(=O)N=S(N)(=O)c1cnc(C(C)(C)O)s1)CCC2` (stereo not drawn) [Compound 144, N′-((3-ethyl-2-phenyl-6,7-dihydro-5H-cyclopenta[b]pyridin-4-yl)carbamoyl)-2-(2-hydroxypropan-2-yl)thiazole-5-sulfonimidamide], for which the IC50 under setting [6] was > 30 µM. For the compound `CCn1cc(F)c(S(N)(=O)=NC(=O)Nc2c3c(nc4c2CCC4(C)C)CCC3)n1` (single isomer, unassigned) [Example 716, (S) or (R)-N′-((3,3-dimethyl-1,2,3,5,6,7-hexahydrodicyclopenta[b,e]pyridin-8-yl)carbamoyl)-1-ethyl-4-fluoro-1H-pyrazole-3-sulfonimidamide], under setting [4], the IC50 was in the range of 1 to 5 µM.

For `CC(C)(O)c1cncc(S(N)(=O)=NC(=O)Nc2c3c(nc4c2CCC4(C)C)CCC3)c1` (single isomer, unassigned) [Compound 684b, (S) or (R)-N′-((3,3-dimethyl-1,2,3,5,6,7-hexahydrodicyclopenta [b,e]pyridin-8-yl)carbamoyl)-5-(2-hydroxypropan-2-yl)pyridine-3-sulfonimidamide], the IC50 under setting [1] lay within 5 to 30 µM. As to `NS(=O)(=NC(=O)Nc1c2c(nc3c1CCC3)CCC2)c1nn(C(F)F)cc1F` (stereo not drawn) [Example 735, 1-(Difluoromethyl)-4-fluoro-N′-((1,2,3,5,6,7-hexahydrodicyclopenta[b,e]pyridin-8-yl)carbamoyl)-1H-pyrazole-3-sulfonimidamide], under “Homo sapiens, THP-1, Table B4, class symbols, read-out: hTHP-1 IC50”, the IC50 is 0.2 to 1 µM. `CCn1cc(F)c(S(N)(=O)=NC(=O)Nc2c3c(nc4c2CCC42CC2)CCC3)n1` (stereo not drawn) [Example 628, 1-Ethyl-4-fluoro-N′-((1′,5′,6′,7′-tetrahydro-2′H-spiro[cyclopropane-1,3′-dicyclopenta[b,e]pyridin]-8′-yl)carbamoyl)-1H-pyrazole-3-sulfonimidamide]: the 50% inhibitory concentration (IC50) under setting [2] was 0.04 to 0.2 µM. For `CCn1cc(F)c(S(N)(=O)=NC(=O)Nc2c3c(nc4c2CC[C@H]4C)CCC3)n1` (single isomer, unassigned) [Example 670, (S) or (R)-1-ethyl-4-fluoro-N′-(((R)-3-methyl-1,2,3,5,6,7-hexahydrodicyclopenta[b,e]pyridin-8-yl)carbamoyl)-1H-pyrazole-3-sulfonimidamide], the IC50 under setting [4] is 1 to 5 µM. Take `CC(C)(O)c1csc(S(N)(=O)=NC(=O)Nc2c3c(nc4c2CCC42CC2)CCC3)c1` (stereo not drawn) [Compound 114]: the IC50 (Homo sapiens, THP-1, Table B1, class symbols, read-out: Average IC50 of compounds in hTHP-1 assay: hTHP-1 IC50) was 0.04 to 0.2 µM.
